Measured values as given in US4335213A (priority 1979, dated 1982).

System: galactose oxidase
Assay: not given
Type: biochemical, Gibberella fujikuroi Y-530929
Conditions: 25° C., pH 7.0

Row | SMILES | Inhibition rate [%]
1 | O=[N+]([O-])[O-].[Ag+] [AgNO3] | 100
2 | NO [NH2 OH] | 100
3 | [N-]=[N+]=[N-].[Na+] [NaN3] | 94
4 | O=C(O)c1cc[c]([Hg][Cl])cc1 [PCMB, parachloromercurybenzoate] | 57

Same assay, conditions: inhibitor 10^-3 M; 25° C., pH 7.0

Row | SMILES | Inhibition rate [%]
5 | O=C(O)CN(CCN(CC(=O)O)CC(=O)O)CC(=O)O [EDTA, ethylenediaminetetraacetic acid] | 52
6 | c1cnc2c(c1)ccc1cccnc12 [o-phenanthroline] | 68

System: galactose oxidase
Assay: Substrate specificity of galactose oxidase (quinoneimine colorimetric assay)
Conditions: not given

Row | SMILES | action of the enzyme on the substrate
7 | O=C(CO)CO [dihydroxyacetone] | acts on
8 | OC[C@H]1O[C@H](OC[C@H]2OC(O)[C@H](O)[C@@H](O)[C@@H]2O)[C@H](O)[C@@H](O)[C@H]1O (stereo partly drawn) [melibiose] | acts on
9 | OC[C@H]1O[C@H](OC[C@H]2O[C@H](O[C@]3(CO)O[C@H](CO)[C@@H](O)[C@@H]3O)[C@H](O)[C@@H](O)[C@@H]2O)[C@H](O)[C@@H](O)[C@H]1O [raffinose] | acts on
